The conditions of series [1]: for Normal melting temperature: Crystal; for mass density: 101.33 kPa, Liquid, Vibrating tube method.
Series [2] is described as follows: Molar enthalpy of transition or fusion. The settings on record: Crystal; DSC.

Numbers after ± are expanded uncertainties.

This note sets out measurements from the NIST ThermoML archive (doi:10.1016/j.fluid.2014.05.034).

What is called mass density is mass per unit of volume.

On to `C[n+]1ccn(CC#N)c1.N#Cc1nc(C(F)(F)F)[n-]c1C#N`, for which the values for the Normal melting temperature in series [1] (DTA) and in series [1] (visual observation) were 92.7 ± 0.5 °C and 93.0 ± 1.1 °C, respectively. In addition, in series [2], the “Molar enthalpy of transition or fusion” value was 7.36 ± 0.213 kcal/mol.
For the molecule `CC[N+]1(C)CCCCC1.O=S(=O)([N-]S(=O)(=O)C(F)(F)F)C(F)(F)F`, in series [1] (visual observation), the Normal melting temperature was determined as 82.8 ± 1.1 °C.
The same measure, in the same setting: for `CCCCCC[n+]1ccc2ccccc2c1.O=S(=O)([N-]S(=O)(=O)C(F)(F)F)C(F)(F)F` [N-hexylisoquinolinium bis(trifluoromethylsulfonyl)imide] the value was 55.2 ± 1.1 °C.
For the molecule `CCCCn1cc[n+](C)c1.N#CC1=NC(C(F)(F)F)=NC1=C=[N-]`, the mass density in series [1] (298.15 K) was determined as 1199.65 ± 5 kg/m3.
As for `CCCCCC[n+]1cccc2ccccc21.O=S(=O)([N-]S(=O)(=O)C(F)(F)F)C(F)(F)F` [1-hexylquinolinium bis(trifluoromethylsulfonyl)amide], the Normal melting temperature in series [1] (visual observation) amounted to 45 ± 1.1 °C.
Turning to `OCCc1ccccc1` [2-phenylethanol], the mass density in series [1] (293.15 K) came to 1019 ± 1 kg/m3.
